Source: PMC8952364, “Polyphenols as Inhibitors of Antibiotic Resistant Bacteria—Mechanisms Underlying Rutin Interference with Bacterial Virulence” (Pharmaceuticals, 2022)
≈ marks a conversion by molar mass, not a printed value. Where two headings read alike, the source gives them in different places.

Tests used:
[1] = tested on: S. aureus USA300; set-up: method as in PMID 34295320; conditions: methicillin resistant strain; cited from earlier work
[2] = tested on: S. infantis 1371/1; assay: Antimicrobial microdilution assay (MIC/MBC); format: cell-based, Salmonella Infantis; conditions: Salmonella enterica, 1371/1; for MIC: 37 °C, 24 h, read-out: MIC; for MBC: subcultivation, 24 h at 37 °C, read-out: MBC
Description: (§1) The bacterial suspension (0.5 Mc Farland) was prepared, and twenty-fold dilutions of these suspensions were mixed in a 1:10 ratio with the corresponding polyphenol dilution (0.0039–1 mg/mL). Microtiter plates were incubated at 37 °C for 24 h. The lowest concentrations without visible growth (under a binocular microscope) were defined as MICs. The bactericidal concentrations (MBCs) were determined by serial subcultivation of 2 μL of the well’s content and further incubation for 24 h at 37 °C. Streptomycin (SigmaAldrich, Darmstadt, Germany) was used as a positive control. The polyphenols were obtained from Extrasynthese, Rhone, France (rutin, isoquercitrin) and SigmaAldrich, Germany (hesperetin, hesperidin, naringenin, naringin, taxifolin, morin, chlorogenic acid, ferulic acid, p-coumaric acid, and gallic acid). The stock compounds were prepared in ethanol (30%), and adequate ethanol concentrations were used as the negative control in the assays. Experiments were done in triplicate.

[3] = tested on: HaCaT cells; assay: Cytotoxicity in HaCaT cell line (crystal violet assay); format: cell-based, human; conditions: Homo sapiens, HaCaT, read-out: IC50 (compound concentration that inhibited 50% of the cell growth)
Description: For determination of the polyphenols’ cytotoxic effect, a crystal violet assay was used, with modifications. The cytotoxic effect of polyphenols was analyzed on spontaneously immortalized human skin keratinocytes (HaCaT, AddexBio No. T0020001, San Diego, CA, USA) cell lines. […] Cells (1 × 10^4 cells/well) were seeded in a 96-well plate (Sarstedt, Nümbrecht, Germany) 24 h before treatment. […] Cells were incubated with the compounds for 24 h. […] After crystal violet was removed, the plates were washed in a stream of tap water and left to air-dry at room temperature for 24 h. The absorbance was measured in a microplate reader (Multiskan™ FC Microplate Photometer, Thermo Scientific™) at 590 nm. The results were expressed as IC50 value in μg/mL. The criterion used to categorize the cytotoxic activity polyphenols was as follows: […] All analyses were performed in triplicate; each replicate was also quantified three times. Data were expressed as mean standard deviation, where applicable.

[4] = tested on: P. aeruginosa IBRS P001 biofilm; assay: Crystal violet antibiofilm assay (biofilm formation); format: cell-based, Pseudomonas aeruginosa; conditions: MIC and sub-MIC, 24 h, crystal violet, Figure 1
Description: After incubation, each well was washed twice with sterile PBS (phosphate-buffered saline, pH 7.4) and fixed with methanol for 10 min. After removal of methanol the plate was air-dried. The biofilm was stained with 0.1% crystal violet (Bio-Merieux, Marcy l’Etoile, France) for 30 min. The plate was washed with water, air dried, and the stain was dissolved with 200 μL of 96% ethanol (Zorka, Sabac, Serbia). The absorbance was read at 620 nm on a Multiskan™ FC microplate photometer (Thermo Scientific™, Waltham, MA, USA). The results are presented as biofilm forming capacity (%) compared to control.

[5] = tested on: K. pneumoniae IT977; assay: Antimicrobial microdilution assay (MIC/MBC); format: cell-based, Klebsiella pneumoniae; conditions: Klebsiella pneumoniae, IT977; for MIC: 37 °C, 24 h, read-out: MIC; for MBC: subcultivation, 24 h at 37 °C, read-out: MBC
Description: as §1

[6] = tested on: K. pneumoniae Ni9; assay: Antimicrobial microdilution assay (MIC/MBC); format: cell-based, Klebsiella pneumoniae; conditions: Klebsiella pneumoniae, NI9; for MIC: 37 °C, 24 h, read-out: MIC; for MBC: subcultivation, 24 h at 37 °C, read-out: MBC
Description: as §1

[7] = tested on: E. coli IBRS E003; assay: Antimicrobial microdilution assay (MIC/MBC); format: cell-based, Escherichia coli; conditions: Escherichia coli, IBRSE003; for MIC: 37 °C, 24 h, read-out: MIC; for MBC: subcultivation, 24 h at 37 °C, read-out: MBC
Description: as §1

[8] = tested on: E. coli IMD989; assay: Antimicrobial microdilution assay (MIC/MBC); format: cell-based, Escherichia coli; conditions: Escherichia coli, IMD989; for MIC: 37 °C, 24 h, read-out: MIC; for MBC: subcultivation, 24 h at 37 °C, read-out: MBC
Description: as §1

[9] = tested on: A. baumannii 6077/12; assay: Antimicrobial microdilution assay (MIC/MBC); format: cell-based, Acinetobacter baumannii; conditions: Acinetobacter baumannii, 6077/12; for MIC: 37 °C, 24 h, read-out: MIC; for MBC: subcultivation, 24 h at 37 °C, read-out: MBC
Description: as §1

[10] = tested on: A. baumannii S2/2; assay: Antimicrobial microdilution assay (MIC/MBC); format: cell-based, Acinetobacter baumannii; conditions: Acinetobacter baumannii, S2/2; for MIC: 37 °C, 24 h, read-out: MIC; for MBC: subcultivation, 24 h at 37 °C, read-out: MBC
Description: as §1

[11] = tested on: Methicillin resistant S. aureus IBRS MRSA 011; assay: Antimicrobial microdilution assay (MIC/MBC); format: cell-based, Staphylococcus aureus; conditions: for MIC: 37 °C, 24 h; for MBC: subcultivation, 24 h at 37 °C, read-out: MBC
Description: as §1

[12] = tested on: eleven antibiotic resistant strains of bacteria; assay: Antimicrobial assay, summary over the examined strains; format: cell-based; conditions: antibiotic resistant strains of Table 1; read-out: lowest MIC among the examined strains
Description: as §1

[13] = tested on: P. aeruginosa IBRS P001; assay: Antimicrobial microdilution assay (MIC/MBC); format: cell-based, Pseudomonas aeruginosa; conditions: Pseudomonas aeruginosa, IBRSP001; for MIC: 37 °C, 24 h, read-out: MIC; for MBC: subcultivation, 24 h at 37 °C, read-out: MBC
Description: as §1

[14] = tested on: P. aeruginosa MMA83; assay: Antimicrobial microdilution assay (MIC/MBC); format: cell-based, Pseudomonas aeruginosa; conditions: Pseudomonas aeruginosa, MMA83; for MIC: 37 °C, 24 h, read-out: MIC; for MBC: subcultivation, 24 h at 37 °C, read-out: MBC
Description: as §1

[15] = tested on: A. xylosoxidans 37F; assay: Antimicrobial microdilution assay (MIC/MBC); format: cell-based, Achromobacter xylosoxidans; conditions: Achromobacter xylosoxidans, 37F; for MIC: 37 °C, 24 h, read-out: MIC; for MBC: subcultivation, 24 h at 37 °C, read-out: MBC
Description: as §1

[16] = tested on: S. aureus clinical isolate; set-up: method as in doi:10.5937/leksir2040057K; conditions: cited from earlier work
[17] = tested on: S. aureus ATCC 11632; set-up: method as in doi:10.5937/leksir2040057K; conditions: cited from earlier work
[18] = tested on: S. aureus Newman and S. aureus Newman Δcoa; set-up: method as in PMID 32130467; conditions: cited from earlier work
[19] = Staphylococcus aureus, MRSA, read-out: MIC

In the case of `O=C1c2c(O)cc(O)cc2OC(c2ccc(O)c(O)c2)C1O` (stereo not shown) [Taxifolin, taxifolin], the MIC [1] is listed as 512 µg/mL (≈ 1680 µM), the MIC [2] is listed as greater than 1000 µg/mL and the MBC [2] is listed as greater than 1000 µg/mL. The IC50 ([3]; 24 h treatment, crystal violet) was 495 ± 47 µg/mL (≈ 1630 µM), the “reduction of biofilm formation (biomass), in words” value [4] was “not significantly altered” and the MIC [5] was greater than 1000 µg/mL. For the same molecule, the MBC [5] was greater than 1000 µg/mL, the MIC [6] was 1000 µg/mL (≈ 3290 µM) and the MBC [6] was 1000 µg/mL (≈ 3290 µM). For the same molecule, the MIC [7] was 500 µg/mL (≈ 1640 µM), the MBC [7] was 1000 µg/mL (≈ 3290 µM) and the MIC [8] was 1000 µg/mL (≈ 3290 µM). It also gave an MBC [8] of 1000 µg/mL (≈ 3290 µM), an MIC [9] of 500 µg/mL (≈ 1640 µM) and an MBC [9] of 1000 µg/mL (≈ 3290 µM). It also gave an MIC [10] of 500 µg/mL (≈ 1640 µM), an MBC [10] of 500 µg/mL (≈ 1640 µM) and an MIC [11] of 250 µg/mL (≈ 822 µM). It also gave an MIC [11, 19] of 250 µg/mL (≈ 822 µM), an MBC ([11]; Staphylococcus aureus, MRSA) of 500 µg/mL (≈ 1640 µM) and an MIC [12] of 250 µg/mL (≈ 822 µM). It also gave an MIC [13] of 250 µg/mL (≈ 822 µM), an MBC [13] of 500 µg/mL (≈ 1640 µM) and an MIC [14] of 1000 µg/mL (≈ 3290 µM). For the same molecule, the MBC [14] was greater than 1000 µg/mL, the MIC [15] was 1000 µg/mL (≈ 3290 µM) and the MBC [15] was 1000 µg/mL (≈ 3290 µM).
For `O=c1c(O[C@@H]2O[C@H](CO)[C@@H](O)[C@H](O)[C@H]2O)c(-c2ccc(O)c(O)c2)oc2cc(O)cc(O)c12` [Isoquercitrin, isoquercitrin], the MIC [16] is listed as 200 µg/mL (≈ 431 µM), the MIC [2] is listed as 1000 µg/mL (≈ 2150 µM) and the MBC [2] is listed as 1000 µg/mL (≈ 2150 µM). The IC50 ([3]; 24 h) was greater than 1000 µg/mL, the MIC [17] was 100 µg/mL (≈ 215 µM) and the “reduction of biofilm formation (biomass), in words” value [4] was “promising (***, p ≤ 0.001) potential to reduce the biomass”. For the same molecule, the “MIC (no inhibitory activity up to)” value [18] was greater than 1024 µg/mL, the MIC [5] was 1000 µg/mL (≈ 2150 µM) and the MBC [5] was 1000 µg/mL (≈ 2150 µM). The MIC [6] was 500 µg/mL (≈ 1080 µM), the MBC [6] was 1000 µg/mL (≈ 2150 µM) and the MIC [7] was greater than 1000 µg/mL. For the same molecule, the MBC [7] was greater than 1000 µg/mL, the MIC [8] was 1000 µg/mL (≈ 2150 µM) and the MBC [8] was 1000 µg/mL (≈ 2150 µM). It also gave an MIC [9] of 250 µg/mL (≈ 538 µM), an MBC [9] of 500 µg/mL (≈ 1080 µM) and an MIC [10] of 500 µg/mL (≈ 1080 µM). The MBC [10] was 500 µg/mL (≈ 1080 µM), the MIC [11, 19] was 500 µg/mL (≈ 1080 µM) and the MBC ([11]; Staphylococcus aureus, MRSA) was 1000 µg/mL (≈ 2150 µM). The MIC [12] was 250 µg/mL (≈ 538 µM), the MIC [13] was 250 µg/mL (≈ 538 µM) and the MBC [13] was 500 µg/mL (≈ 1080 µM). For the same molecule, the MIC [14] was 250 µg/mL (≈ 538 µM), the MBC [14] was 250 µg/mL (≈ 538 µM) and the MIC [15] was 500 µg/mL (≈ 1080 µM). For the same molecule, the MBC [15] was 500 µg/mL (≈ 1080 µM).
